Assay results reported in the NIST ThermoML archive (doi:10.1021/acs.jced.5b00474).
Numbers after ± are expanded uncertainties.

Assay: xn = mol fraction of the nth substance listed
Details: 101 kPa, Liquid; for speed of sound: Frequency=3 MHz, Sing-around technique in a fixed-path interferometer; for mass density: Vibrating tube method

O=C1CCCN1 [2-pyrrolidinone] + ClC(Cl)Cl
speed of sound (293.15 K, x1 = 0.1002): 1033.4 ± 0.82 m/s | speed of sound (293.15 K, x1 = 0.199): 1074.6 ± 0.81 m/s | speed of sound (293.15 K, x1 = 0.3019): 1124.8 ± 0.82 m/s | speed of sound (293.15 K, x1 = 0.4027): 1179 ± 0.83 m/s | speed of sound (293.15 K, x1 = 0.5022): 1238.7 ± 0.85 m/s | speed of sound (293.15 K, x1 = 0.697): 1374.5 ± 0.89 m/s | speed of sound (293.15 K, x1 = 0.7992): 1457.3 ± 0.91 m/s | speed of sound (293.15 K, x1 = 0.9): 1548.8 ± 0.94 m/s | speed of sound (293.15 K, x1 = 1): 1649.3 ± 0.94 m/s | mass density (293.15 K, x1 = 0.1002): 1457.64 ± 0.56 kg/m3 | mass density (293.15 K, x1 = 0.199): 1424.67 ± 0.55 kg/m3 | mass density (293.15 K, x1 = 0.3019): 1388.18 ± 0.54 kg/m3 | mass density (293.15 K, x1 = 0.4027): 1351 ± 0.54 kg/m3 | mass density (293.15 K, x1 = 0.5022): 1313.31 ± 0.53 kg/m3 | mass density (293.15 K, x1 = 0.697): 1235.75 ± 0.53 kg/m3 | mass density (293.15 K, x1 = 0.7992): 1194.43 ± 0.52 kg/m3 | mass density (293.15 K, x1 = 0.9): 1152.99 ± 0.52 kg/m3 | mass density (293.15 K, x1 = 1): 1111.44 ± 0.51 kg/m3 | speed of sound (293.16 K, x1 = 0.6054): 1307.2 ± 0.86 m/s | mass density (293.16 K, x1 = 0.6054): 1272.91 ± 0.53 kg/m3 | mass density (295.15 K, x1 = 0.199): 1421.54 ± 0.55 kg/m3 | mass density (295.15 K, x1 = 0.3019): 1385.33 ± 0.55 kg/m3 | mass density (295.15 K, x1 = 0.4027): 1348.4 ± 0.54 kg/m3 | mass density (295.15 K, x1 = 0.5022): 1310.93 ± 0.53 kg/m3 | mass density (295.15 K, x1 = 0.6054): 1270.72 ± 0.53 kg/m3 | mass density (295.15 K, x1 = 0.697): 1233.71 ± 0.52 kg/m3 | mass density (295.15 K, x1 = 0.7992): 1192.54 ± 0.52 kg/m3 | mass density (295.15 K, x1 = 0.9): 1151.23 ± 0.52 kg/m3 | speed of sound (298.15 K, x1 = 0.1002): 1017.4 ± 0.78 m/s | speed of sound (298.15 K, x1 = 0.199): 1059.6 ± 0.79 m/s | speed of sound (298.15 K, x1 = 0.3019): 1109.8 ± 0.8 m/s | speed of sound (298.15 K, x1 = 0.4027): 1164.5 ± 0.81 m/s | speed of sound (298.15 K, x1 = 0.5022): 1223.7 ± 0.83 m/s | speed of sound (298.15 K, x1 = 0.6054): 1292.9 ± 0.84 m/s | speed of sound (298.15 K, x1 = 0.697): 1358.9 ± 0.87 m/s | speed of sound (298.15 K, x1 = 1): 1632.9 ± 0.94 m/s | mass density (298.15 K, x1 = 0.1002): 1449.07 ± 0.56 kg/m3 | mass density (298.15 K, x1 = 0.199): 1416.87 ± 0.55 kg/m3 | mass density (298.15 K, x1 = 0.3019): 1381.1 ± 0.55 kg/m3 | mass density (298.15 K, x1 = 0.4027): 1344.53 ± 0.54 kg/m3 | mass density (298.15 K, x1 = 0.5022): 1307.38 ± 0.53 kg/m3 | mass density (298.15 K, x1 = 0.6054): 1267.47 ± 0.53 kg/m3 | mass density (298.15 K, x1 = 0.697): 1230.66 ± 0.52 kg/m3 | mass density (298.15 K, x1 = 1): 1107.35 ± 0.51 kg/m3 | speed of sound (298.16 K, x1 = 0.7992): 1442.2 ± 0.89 m/s | speed of sound (298.16 K, x1 = 0.9): 1533.3 ± 0.91 m/s | mass density (298.16 K, x1 = 0.7992): 1189.72 ± 0.52 kg/m3 | mass density (298.16 K, x1 = 0.9): 1148.6 ± 0.52 kg/m3 | mass density (301.15 K, x1 = 1): 1104.88 ± 0.51 kg/m3 | speed of sound (303.15 K, x1 = 0.1002): 1001.5 ± 0.78 m/s | speed of sound (303.15 K, x1 = 0.199): 1044 ± 0.79 m/s | speed of sound (303.15 K, x1 = 0.3019): 1094.7 ± 0.8 m/s | speed of sound (303.15 K, x1 = 0.4027): 1149.5 ± 0.81 m/s | speed of sound (303.15 K, x1 = 0.5022): 1208.6 ± 0.82 m/s | speed of sound (303.15 K, x1 = 0.697): 1343.1 ± 0.86 m/s | speed of sound (303.15 K, x1 = 0.7992): 1426.5 ± 0.88 m/s | speed of sound (303.15 K, x1 = 0.9): 1517.3 ± 0.91 m/s | speed of sound (303.15 K, x1 = 1): 1616.7 ± 0.93 m/s | mass density (303.15 K, x1 = 0.1002): 1440.46 ± 0.56 kg/m3 | mass density (303.15 K, x1 = 0.199): 1409.07 ± 0.55 kg/m3 | mass density (303.15 K, x1 = 0.3019): 1374 ± 0.55 kg/m3 | mass density (303.15 K, x1 = 0.4027): 1338.05 ± 0.54 kg/m3 | mass density (303.15 K, x1 = 0.5022): 1301.43 ± 0.53 kg/m3 | mass density (303.15 K, x1 = 0.697): 1225.58 ± 0.52 kg/m3 | mass density (303.15 K, x1 = 0.7992): 1184.99 ± 0.52 kg/m3 | mass density (303.15 K, x1 = 0.9): 1144.21 ± 0.52 kg/m3 | mass density (303.15 K, x1 = 1): 1103.26 ± 0.51 kg/m3 | speed of sound (303.16 K, x1 = 0.6054): 1278.2 ± 0.84 m/s | mass density (303.16 K, x1 = 0.6054): 1262 ± 0.53 kg/m3 | speed of sound (308.15 K, x1 = 0.1002): 985.52 ± 0.75 m/s | speed of sound (308.15 K, x1 = 0.199): 1028.3 ± 0.77 m/s | speed of sound (308.15 K, x1 = 0.4027): 1134.4 ± 0.79 m/s | speed of sound (308.15 K, x1 = 0.5022): 1193.5 ± 0.8 m/s | speed of sound (308.15 K, x1 = 0.6054): 1263.1 ± 0.83 m/s | speed of sound (308.15 K, x1 = 0.697): 1327.1 ± 0.83 m/s | speed of sound (308.15 K, x1 = 0.7992): 1411 ± 0.86 m/s | speed of sound (308.15 K, x1 = 0.9): 1501.5 ± 0.89 m/s | speed of sound (308.15 K, x1 = 1): 1600.5 ± 0.93 m/s | mass density (308.15 K, x1 = 0.1002): 1431.81 ± 0.57 kg/m3 | mass density (308.15 K, x1 = 0.199): 1401.22 ± 0.56 kg/m3 | mass density (308.15 K, x1 = 0.4027): 1331.55 ± 0.54 kg/m3 | mass density (308.15 K, x1 = 0.5022): 1295.47 ± 0.54 kg/m3 | mass density (308.15 K, x1 = 0.6054): 1256.52 ± 0.53 kg/m3 | mass density (308.15 K, x1 = 0.697): 1220.48 ± 0.52 kg/m3 | mass density (308.15 K, x1 = 0.7992): 1180.28 ± 0.52 kg/m3 | mass density (308.15 K, x1 = 0.9): 1139.82 ± 0.52 kg/m3 | mass density (308.15 K, x1 = 1): 1099.17 ± 0.51 kg/m3 | speed of sound (308.16 K, x1 = 0.3019): 1079.5 ± 0.78 m/s | mass density (308.16 K, x1 = 0.3019): 1366.88 ± 0.55 kg/m3 | speed of sound (313.15 K, x1 = 1): 1584.5 ± 1.8 m/s | mass density (313.15 K, x1 = 1): 1095.08 ± 1.1 kg/m3 | speed of sound (318.16 K, x1 = 1): 1568.6 ± 0.92 m/s | mass density (318.16 K, x1 = 1): 1091 ± 0.51 kg/m3 | speed of sound (323.16 K, x1 = 1): 1552.8 ± 0.91 m/s | mass density (323.16 K, x1 = 1): 1086.92 ± 0.51 kg/m3
